Data as given in patent US20110118274A1, “PROTEASOME INHIBITORS AND THEIR USE IN TREATING PATHOGEN INFECTION AND CANCER” (CORNELL RESEARCH FOUNDATION, INC., priority 2007, published 2011).
Like-named read-outs stand apart in the source and are kept apart here.

Legend:
[1] = molecular target: T1, Mtb proteasome (Mycobacterium tuberculosis, UniProt P9WHT9); assay: Preliminary inhibition studies of Mtb proteasome with oligopeptide substrates; format: biochemical
T1 construct: made in house; host or cells: E. coli

[2] = test system: Mtb H37Rv; assay: Mycobactericidal activity against Mtb (CFU); format: cell-based, Mycobacterium tuberculosis
[3] = molecular target: proteasome in M. bovis BCG (Mycobacterium bovis, UniProt A1KKF3); assay: cell-based; settings: read-out: intrabacterial proteasome inhibition
[4] = test system: mouse macrophage-like RAW264.7 cells; assay: Cytotoxicity, RAW264.7 cells; format: cell-based; settings: up to 50 μM, 4 days
Method: (§1) Given that proteasome-inhibiting oxathiazol-2ones killed mycobacteria, their impact on the survival of mammalian cells was tested. […] In contrast, less than 10% of Vero cells remained viable after 4-day exposure to 25 nM bortezomib. Finally, because most Mtb in nature resides in human macrophages, we exposed human monocyte-derived macrophages (mostly multinucleated giant cells) to 100 μM GL3, GL5 or GL6 for 7 days.

[5] = molecular target: α-chymotrypsin (Bos taurus, UniProt P00766); assay: Inhibition of α-chymotrypsin; format: biochemical, mammalian
Text: The unique inactivation mechanism of oxathiazol-2-ones led to an examination of selectivity of these compounds among non-proteasomal proteases, such as chymotrypsin, trypsin, cathepsin B, and matrix metalloproteinase (MMP)-2, representatives of the serine-, cysteine-, and matrix metalloproteinase classes. […] In contrast to the proteasome's N-terminal Thr active site residue, chymotrypsin's active site Ser residue is positioned internally. Given the lack of a terminal NH2 group, the acyl-enzyme intermediate formed by reaction of oxathiazol-2-one with the γ-OH of chymotrypsin's active site Ser can undergo either aqueous hydrolysis to reactivate the enzyme or regeneration of oxathiazol-2-one by the released —OH or —SH group attacking —CO-γO-Ser.

[6] = molecular target: T2, Mtb PrcAB-OG (Mycobacterium tuberculosis, UniProt P9WHT9); assay: biochemical; format: biochemical
T2 construct: made in house; host or cells: E. coli
Target sequence in this assay (P9WHT9 58-291): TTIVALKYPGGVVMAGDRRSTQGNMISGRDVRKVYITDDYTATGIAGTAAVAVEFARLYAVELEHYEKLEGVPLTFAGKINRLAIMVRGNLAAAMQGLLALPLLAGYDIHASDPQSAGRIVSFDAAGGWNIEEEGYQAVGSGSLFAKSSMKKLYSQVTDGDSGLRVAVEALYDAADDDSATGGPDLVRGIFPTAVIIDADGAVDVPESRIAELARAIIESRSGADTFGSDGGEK

[7] = test system: Mtb PrcAB-OG; assay: biochemical; format: biochemical, Mycobacterium tuberculosis
[8] = test system: human lung fibroblasts; assay: Cytotoxicity, human lung fibroblasts; format: cell-based; settings: up to 50 μM, 4 days
Method: as §1

[9] = test system: M. bovis BCG; assay: microbe, parasite or virus in culture; format: cell-based, Mycobacterium bovis BCG; settings: for reduction of colony forming units (CFU): cells exposed to DETA-NO 50 μM; for log reduction at 25 µM: Mycobacterium tuberculosis variant bovis BCG, BCG, 96 h, read-out: BCG killing (25 μM)
[10] = test system: human monocyte-derived macrophages; assay: Cytotoxicity, human monocyte-derived macrophages; format: cell-based; settings: 100 μM, 7 days
Method: as §1

[11] = molecular target: human 20S-β5 (Hu20S PA28) (Homo sapiens, UniProt P28074); assay: Kinetics of inhibition of human 20S proteasome β5 site in presence of PA28; format: biochemical
[12] = molecular target: T1, Mtb proteasome; format: biochemical; settings: dialysis 18 hours against inhibitor-free buffer
[13] = test system: human skin fibroblasts; assay: Cytotoxicity, human skin fibroblasts; format: cell-based; settings: up to 50 μM, 4 days
Method: as §1

[14] = test system: Vero monkey kidney epithelial cells; assay: Cytotoxicity, Vero cells; format: cell-based; settings: up to 50 μM, 4 days
Method: as §1

[15] = molecular target: human proteasome (Homo sapiens, UniProt P28072+P28074+Q99436); assay: Preliminary inhibition studies of human proteasome with oligopeptide substrates
[16] = molecular target: T2, Mtb PrcAB-OG; format: biochemical
Target sequence in this assay (P9WHT9 58-291): as above
Target sequence in this assay (P9WHU1 9-248 partner, looked up, natural form): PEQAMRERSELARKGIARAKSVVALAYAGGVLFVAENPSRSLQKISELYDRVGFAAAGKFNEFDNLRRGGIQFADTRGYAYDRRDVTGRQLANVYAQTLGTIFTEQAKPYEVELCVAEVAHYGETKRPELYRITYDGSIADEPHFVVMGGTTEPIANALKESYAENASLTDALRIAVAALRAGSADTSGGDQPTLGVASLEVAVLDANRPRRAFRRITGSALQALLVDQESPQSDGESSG

[17] = 50 μM, 4 days, Mtb exposed overnight to 100 μM DETA
[18] = 50 μM, 4 days, Mtb exposed overnight to 100 μM DETA-NO
[19] = Table 1, read-out: kobs/[I] Mtb-OG
[20] = Mycobacterium tuberculosis, H37RV, 96 h; read-out: Mtb killing (50 μM)

T1 sequence (P9WHT9 58-291): as the sequence (P9WHT9 58-291) above
T1 sequence (P9WHU1 9-248 partner, looked up, natural form): as the sequence (P9WHU1 9-248 partner, looked up, natural form) above
Sequence of proteasome in M. bovis BCG (A1KKF3 whole entry, looked up): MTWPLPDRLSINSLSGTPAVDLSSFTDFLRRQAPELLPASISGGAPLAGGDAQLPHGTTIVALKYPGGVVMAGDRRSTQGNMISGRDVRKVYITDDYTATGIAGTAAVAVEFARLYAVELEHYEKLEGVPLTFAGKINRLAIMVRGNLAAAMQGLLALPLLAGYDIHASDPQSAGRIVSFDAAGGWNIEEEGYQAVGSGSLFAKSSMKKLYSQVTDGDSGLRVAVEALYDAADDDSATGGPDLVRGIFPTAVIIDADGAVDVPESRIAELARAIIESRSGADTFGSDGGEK

O=c1oc(-c2cnccn2)ns1 [5-(pyrazin-2-yl)-1,3,4-oxathiazol-2-one]
inhibition of Mtb proteasome [1]: found to inhibit the Mtb proteasome, albeit less potently than GL5

CSc1sc(C)cc1-c1nsc(=O)o1 [GL5]
reduction of number of CFU [2, 17]: not if they had been exposed to DETA | reduction of number of CFU [2, 18]: 47 fold | log reduction at 50 µM ([2]; Mycobacterium tuberculosis, H37RV, 96 h, read-out: Mtb killing (50 μM)): 1.4 | inhibition at 10 µM [3]: ≥ 50% | cytotoxicity [4]: no evident cytotoxicity | IC50 [5]: 0.064 µM | Ki ([5]; reversible, time-independent inhibition): 0.064 µM | Hill coefficient (Mtb PrcAB-OG) [6]: 1 | effect of substrate concentration on rate of inactivation [6]: Increasing substrate concentration reduced the rate of proteasome inactivation | kinact/K ([6]; Mtb PrcAB-OG, corrected for substrate competition, […]): 625 ± 12.2^b M^−1s^−1 | kinact/KI [6, 19]: 376 M⁻¹ s⁻¹ | kinact/KI ([6]; corrected for substrate competition, read-out: kinact/K for GL5 vs Mtb proteasome): 624 ± 12.2 M⁻¹ s⁻¹ | kinact/KI ([6]; slope of kobs vs [I], not corrected for substrate competition, read-out: apparent value of kobs/[I]): 476 ± 9.3 M⁻¹ s⁻¹ | improvement in species selectivity ratio relative to bortezomib [7]: ~1160 fold | selectivity toward Mtb proteasome over human β5 proteasome subunit [7]: 64 fold | Ratio ([7]; kobs/[I] Mtb-OG versus Hu20S PA28): 1033 | cytotoxicity [8]: no evident cytotoxicity | reduction of colony forming units (CFU) ([9]; 25 μM, 4 days): 400 fold | reduction of colony forming units (CFU) ([9]; 50 μM, 4 days): more than 2000 fold | log reduction at 25 µM [9]: > 2 | killing of BCG ([9]; alone and with DETA-NO 50 μM, 4 days): able to kill BCG | morphologic sign of cytotoxicity [10]: no morphologic sign of cytotoxicity | reversibility of inactivation of human proteasome β5 subunit ([11]; plots of kobs vs [I] not passing through origin): reversible | kinact/KI ([11]; read-out: kobs/[I] H20S-β5): 9.8 ± 1.3 M⁻¹ s⁻¹ | kinact/KI ([11]; read-out: kobs/[I] Hu20S PA28): 0.4 M⁻¹ s⁻¹ | activity recovered after dialysis [12]: did not restore the activity | cytotoxicity [13]: no evident cytotoxicity | cytotoxicity [14]: no evident cytotoxicity

Cc1cc(-c2nsc(=O)o2)c(S(C)(=O)=O)s1 [GL6]
reduction of number of CFU [2, 17]: did not lead to a reduction of CFU | reduction of number of CFU [2, 18]: did not lead to a reduction of CFU | inhibition of human proteasome [15]: inhibited neither | cytotoxicity [4]: no evident cytotoxicity | cytotoxicity [8]: no evident cytotoxicity | morphologic sign of cytotoxicity [10]: no morphologic sign of cytotoxicity | prevention of β-casein degradation by Mtb proteasome [16]: but not GL6 | cytotoxicity [13]: no evident cytotoxicity | cytotoxicity [14]: no evident cytotoxicity | inhibition of Mtb proteasome [1]: inhibited neither

O=c1oc(-c2cc([N+](=O)[O-])cs2)ns1 [HT1016]
log reduction at 50 µM [2, 20]: 2.2 | IC50 [5]: 5.87 µM | kinact/KI [6, 19]: 732 M⁻¹ s⁻¹ | log reduction at 25 µM [9]: > 3 | kinact/KI ([11]; read-out: kobs/[I] Hu20S PA28): 12.3 M⁻¹ s⁻¹

O=c1oc(-c2ccc([N+](=O)[O-])cc2)ns1 [HT1041]
log reduction at 50 µM [2, 20]: 1.7 | IC50 [5]: 2.08 µM | kinact/KI ([6]; read-out: kobs/[I] Mtb-OG): 598 M⁻¹ s⁻¹ | log reduction at 25 µM [9]: 0.8 | kinact/KI ([11]; read-out: kobs/[I] Hu20S PA28): 12.9 M⁻¹ s⁻¹

O=c1oc(-c2cccc([N+](=O)[O-])c2)ns1 [HT1042]
log reduction at 50 µM [2, 20]: 1.7 | IC50 [5]: 3.14 µM | kinact/KI ([6]; read-out: kobs/[I] Mtb-OG): 729 M⁻¹ s⁻¹ | log reduction at 25 µM [9]: 2 | kinact/KI ([11]; read-out: kobs/[I] Hu20S PA28): 10.3 M⁻¹ s⁻¹

O=c1oc(-c2ccccn2)ns1 [HT1043]
log reduction at 50 µM [2, 20]: 1.8 | IC50 [5]: 16.6 µM | kinact/KI ([6]; read-out: kobs/[I] Mtb-OG): 460 M⁻¹ s⁻¹ | log reduction at 25 µM [9]: 1 | kinact/KI ([11]; read-out: kobs/[I] Hu20S PA28): 0.2 M⁻¹ s⁻¹

Cc1ccc(-c2nsc(=O)o2)s1 [HT1044]
log reduction at 50 µM [2, 20]: 2 | IC50 [5]: 8.02 µM | kinact/KI [6, 19]: 1070 M⁻¹ s⁻¹ | log reduction at 25 µM [9]: 1.7 | kinact/KI ([11]; read-out: kobs/[I] Hu20S PA28): 148 M⁻¹ s⁻¹

COc1cccc(-c2nsc(=O)o2)c1 [HT1054]
log reduction at 50 µM [2, 20]: 2 | IC50 [5]: 2.19 µM | kinact/KI ([6]; read-out: kobs/[I] Mtb-OG): 636 M⁻¹ s⁻¹ | log reduction at 25 µM [9]: > 3 | kinact/KI ([11]; read-out: kobs/[I] Hu20S PA28): 14.8 M⁻¹ s⁻¹
